Like-named read-outs stand apart in the source and are kept apart here.

For assay [1], the system named is human breast carcinoma cell line (MCF-7). In words: MTT anti-proliferative assay, MCF-7. In kind it is cell-based. As to conditions: MCF7, MCF-7, MTT, mean ± SD of three independent experiments, read-out: Growth inhibition, GI50. The method, then: (§1) Methods for in vitro anti-proliferative assay [Cell lines]: In the current investigation, hepatocellular carcinoma cell lines (HEPG-2), human lung carcinoma (A549) and human breast carcinoma cell line (MCF-7) and pseudo-normal human embryonic liver cellline (L02) were used for antiproliferative activity, the cell lines were obtained from NCL, Pune. The growth medium used is the DMEM (Dulbecco's modified Eagle's growth medium) having 10% FBS (fetal bovine serum), 10 µg/ml of insulin (Sigma) and 1% penicillin/streptomycin. The used reagents and chemicals were purchased from Sigma or Invitrogen. 100 µl of each compound was added to cells with density of 1.2 – 1.8 × 10,000 cells/well containing 100 µl growth medium in a 96-well plate for 24 h previous to performing the MTT assay.
(§2) MTT assay: MTT (3-[4,5-dimethylthiazole-2-yl]-2,5-diphenyltetrazolium bromide) was used to determine the anti-proliferative activity. Cells were incubated in a moist environment for 24 hours at 37℃. The cells were then treated with various concentrations of the studied substances (0.01, 0.1, 1.0, 10, 50, 100 µM). The media was removed, and the cells were treated for 2 hours with a 5% MTT ([…]) solution/well, allowing the dye to metabolize to colored-insoluble formazan crystals. The remaining solution was discarded and acidified isopropanol was then added for around 30 minutes to dissolve the formazan crystals, which were encased in aluminum foil at room temperature. The absorbance of each well was measured at 450 nm using an Elisa reader. The cell viability was expressed as a percentage of control, and the GI50 was calculated using Graph Pad Prism program (Graph Pad software Inc, CA).

For assay [2], the system named is human lung carcinoma cell line (A549). In words: MTT anti-proliferative assay, A549. In kind it is cell-based. As to conditions: mean ± SD of three independent experiments, read-out: Growth inhibition, GI50. The method, then:
as §1, §2

Assay [3] concerns hepatocellular carcinoma cell lines (HEPG-2). Put plainly: MTT anti-proliferative assay, HepG-2. As to conditions: mean ± SD of three independent experiments, read-out: Growth inhibition, GI50. It counts as cell-based, human. The method, then:
as §1, §2

Assay [4] concerns pseudo-normal human embryonic liver cell line (L02). Put plainly: MTT assay, pseudo-normal L02 cells. In kind it is cell-based. As to conditions: L02, 100 µM, mean ± SD of three independent experiments. The method, then:
as §1, §2

In assay [5] the test system is breast carcinoma cell line (MCF-7). Put plainly: Annexin V-FITC/PI assay (flow cytometry). Particulars: 24 h. It counts as cell-based, human. The method, then: The early stages of apoptosis were monitored by Annexin V-FITC (apoptotic cell marker) and PI (necrotic cell marker) double staining. The staining method was used according to the Annexin FITC/PI staining kit (Invitrogen™, Thermo Fisher Scientific Inc.). Annexin V- FITC/PI assay was performed to inspect the extent of programmed cell death (Fig. 3, apoptosis) by the compounds 4c, 4j and 8f on breast carcinoma cell line (MCF-7). The cells were treated with increasing concentrations (5–10 μM) for 24 h and analyzed by flow cytometry.
Annexin V-FITC/PI Assay: The early stages of apoptosis were monitored by Annexin V-FITC (apoptotic cell marker) and PI (necrotic cell marker) double staining. The staining method was used according to the Annexin FITC/PI staining kit (Invitrogen™, Thermo Fisher Scientific Inc.). Briefly, cells were washed in PBS twice and resuspended in 500 μl of PBS plus Annexin V-FITC and PI. For each sample at least 1×10^4 cells should be analysed using an FACS cytometer.

The mark [6] stands for this setting: Homo sapiens, HepG2, HepG-2, MTT.

In the case of `COc1cccc(-c2csc(NC(=O)CCl)n2)c1` [4j], the GI50 was 1.82 ± 0.21 µM in assay [1]; 2.61 ± 0.12 µM in assay [2] (Homo sapiens, A549, A549, MTT); 2.38 ± 0.24 µM in assay [3] (setting [6]). For the same molecule, testing at 100 µM in assay [4] gave an inhibition of 17.3 ± 0.23%. Besides, the “Q2 late apoptotic cells” value in assay [5] (MCF-7, 5 μM) is 34.84%; in assay [5] (MCF-7, 10 μM), 40.33%. The Q3 live cells was determined as 42.81% in assay [5] (MCF-7, 5 μM) and 32.80% in assay [5] (MCF-7, 10 μM).
On to `O=C(CCl)Nc1nc(-c2cccc([N+](=O)[O-])c2)cs1` [4h], for which the concentration for 50% growth inhibition (GI50) turned out to be 38.15 ± 0.27 µM in assay [1]; 28.6 ± 0.47 µM in assay [2] (Homo sapiens, A549, A549, MTT); 25.81 ± 0.23 µM in assay [3] (setting [6]). In addition, the inhibition at 100 µM in assay [4] is 18.4 ± 0.34%.
For `Nc1nnc(SCC(=O)Nc2nc(-c3ccc(Cl)cc3)cs2)s1` [8c, 2-(5-amino-1,3,4-thiadiazol-2-ylthio)-N-(4-(4-chlorophenyl)thiazol-2-yl) acetamide], in that order: 20.7 ± 0.36 µM, 7.86 ± 0.24 µM, 4.12 ± 0.18 µM and 18.2 ± 0.22%.
Turning to `Nc1nnc(SCC(=O)Nc2nc(-c3ccc([N+](=O)[O-])cc3)cs2)s1` [8f, 2-(5-amino-1,3,4-thiadiazol-2-ylthio)-N-(4-(4-nitrophenyl)thiazol-2-yl) acetamide], the GI50 was determined as 3.71 ± 0.26 µM in assay [1]; 4.64 ± 0.23 µM in assay [2] (Homo sapiens, A549, A549, MTT); 3.46 ± 0.13 µM in assay [3] (setting [6]). The molecule also gave an inhibition at 100 µM in assay [4] of 20.6 ± 0.37%. The Q1 necrotic cells stood at 16.99% in assay [5] (MCF-7, 5 μM) and 12.44% in assay [5] (MCF-7, 10 μM). The “Q2 late apoptotic cells” value in assay [5] (MCF-7, 5 μM) is 14.62%; in assay [5] (MCF-7, 10 μM), 37.15%. In addition, the Q3 live cells in assay [5] (MCF-7, 5 μM) was 59.08%; in assay [5] (MCF-7, 10 μM), 46.14%.
Regarding `Cc1ccc(-c2csc(NC(=O)CSc3nnc(N)s3)n2)cc1` [8e, 2-(5-amino-1,3,4-thiadiazol-2-ylthio)-N-(4-p-tolylthiazol-2-yl) acetamide], the GI50 is 28 ± 0.34 µM in assay [1]; 29.8 ± 0.37 µM in assay [2] (Homo sapiens, A549, A549, MTT); 18.3 ± 0.34 µM in assay [3] (setting [6]). This molecule returned an inhibition at 100 µM in assay [4] of 23.8 ± 0.42%.
In the case of `O=C(CCl)Nc1nc(-c2ccc(Br)cc2)cs1` [4b], the 50% growth inhibitory concentration (GI50) in assay [2] (A549, MTT) amounted to 2.97 ± 0.19 µM; in assay [2] (Homo sapiens, A549, A549, MTT), 3.86 µM; in assay [3] (HepG-2, MTT), 3.62 ± 0.14 µM; in assay [3] (setting [6]), 3.92 µM. The molecule also yielded an inhibition at 100 µM in assay [4] of 17.8 ± 0.51%.
As to `O=C(CCl)Nc1nc(-c2ccc(F)cc2)cs1` [4g], the GI50 in assay [1] is 36.7 ± 0.41 µM; in assay [2] (Homo sapiens, A549, A549, MTT) it was 17.5 ± 0.26 µM; in assay [3] (setting [6]) it was 22.7 ± 0.46 µM. In assay [4], the inhibition at 100 µM came to 16.3 ± 0.21%.
In the same order, the values of `COc1ccc(-c2csc(NC(=O)CSc3nnc(N)s3)n2)cc1` [8d, 2-(5-amino-1,3,4-thiadiazol-2-ylthio)-N-(4-(4-methoxyphenyl)thiazol-2-yl) acetamide] are 2.98 ± 0.15 µM, 2.85 ± 0.18 µM, 2.53 ± 0.1 µM and 21.8 ± 0.38%.
In the same order, the values of `Nc1nnc(SCC(=O)Nc2nc(-c3ccc(Br)cc3)cs2)s1` [8b, 2-(5-amino-1,3,4-thiadiazol-2-ylthio)-N-(4-(4-bromophenyl)thiazol-2-yl) acetamide] are 4.07 ± 0.19 µM, 18.4 ± 0.46 µM, 5.86 ± 0.24 µM and 15.8 ± 0.28%.
For the molecule `COc1ccc(-c2csc(NC(=O)CCl)n2)cc1` [4d], the GI50 in assay [1] stood at 26.5 ± 0.32 µM; in assay [2] (Homo sapiens, A549, A549, MTT), 15.4 ± 0.23 µM; in assay [3] (setting [6]), 8.37 ± 0.23 µM. Moreover, in assay [4], 100 µM produced 12.8 ± 0.22% inhibition.
In the same order, the values of `Cc1ccc(-c2csc(NC(=O)CCl)n2)cc1` [4e] are 31.8 ± 0.46 µM, 13.7 ± 0.34 µM, 7.28 ± 0.16 µM and 15.9 ± 0.24%.
On to `CCOC(=O)c1sc(NC(=O)CCl)nc1C` [4l], for which the GI50 is 37.26 ± 0.37 µM in assay [1]; 32.9 ± 0.46 µM in assay [2] (Homo sapiens, A549, A549, MTT); 29.8 ± 0.34 µM in assay [3] (setting [6]). This molecule gave an inhibition at 100 µM in assay [4] of 26 ± 0.47%.
For `O=C(CCl)Nc1nc(-c2ccc([N+](=O)[O-])cc2)cs1` [4f], in that order: 29.4 ± 0.32 µM, 19.2 ± 0.32 µM, 18.9 ± 0.29 µM and 28.16 ± 0.27%.
With `Nc1nnc(SCC(=O)Nc2nc(-c3ccccc3)cs2)s1` [8a, 2-(5-amino-1,3,4-thiadiazol-2-ylthio)-N-(4-phenylthiazol-2-yl) acetamide], the GI50 turned out to be 34.87 ± 0.31 µM in assay [1]; 36.2 ± 0.39 µM in assay [2] (Homo sapiens, A549, A549, MTT); 26.8 ± 0.28 µM in assay [3] (setting [6]). Besides, the inhibition at 100 µM in assay [4] amounted to 22.6 ± 0.42%.
With `O=C(CCl)Nc1nc(-c2cccc(Br)c2)cs1` [4i], the GI50 amounted to 33.74 ± 0.32 µM in assay [1]; 31.4 ± 0.36 µM in assay [2] (Homo sapiens, A549, A549, MTT); 16 ± 0.43 µM in assay [3] (setting [6]). In assay [4], this molecule had an inhibition at 100 µM of 17.6 ± 0.38%.
Turning to `O=C(CCl)Nc1nc(-c2ccccc2)cs1` [4a], the GI50 in assay [1] was 23.8 ± 0.24 µM; in assay [2] (Homo sapiens, A549, A549, MTT), 18.7 ± 0.41 µM; in assay [3] (setting [6]) it was 12.9 ± 0.25 µM. Further, testing at 100 µM in assay [4] gave an inhibition of 21.6 ± 0.43%.
In the same order, the values of `COc1cccc2c1C(=O)c1c(O)c3c(c(O)c1C2=O)C[C@@](O)(C(=O)CO)C[C@@H]3O[C@H]1C[C@H](N)[C@H](O)[C@H](C)O1` [doxorubicin, reference compound] are 4.15 ± 0.18 µM, 3.26 ± 0.24 µM, 3.87 ± 0.16 µM and 82.2 ± 1.26%.
With `O=C(CCl)Nc1nc(-c2cc3ccccc3oc2=O)cs1` [4k], the GI50 in assay [1] was 26.4 ± 0.28 µM; in assay [2] (Homo sapiens, A549, A549, MTT) it was 25.3 ± 0.39 µM; in assay [3] (setting [6]), 14.3 ± 0.28 µM. For the same molecule, in assay [4], the inhibition at 100 µM turned out to be 23 ± 0.35%.
Consider `O=C(CCl)Nc1nc(-c2ccc(Cl)cc2)cs1` [4c], for which the GI50 worked out at 2.63 ± 0.14 µM in assay [1]; 3.86 ± 0.22 µM in assay [2] (Homo sapiens, A549, A549, MTT); 3.92 ± 0.17 µM in assay [3] (setting [6]). For the same molecule, 100 µM produced 18.4 ± 0.48% inhibition in assay [4]. Besides, the Q3 live cells in assay [5] (MCF-7, 5 μM) came out at 62.43%; in assay [5] (MCF-7, 10 μM) it was 42.19%.

The values above are taken from article PMC11210122, “Synthesis, biological evaluation, and molecular docking of novel 1,3,4-substituted-thiadiazole derivatives as potential anticancer agent” (BMC Chemistry, 2024).
